This note sets out measurements from article PMC3199943, “Screening the MayBridge Rule of 3 Fragment Library for Compounds That Interact with the Trypanosoma brucei myo-Inositol-3-Phosphate Synthase and/or Show Trypanocidal Activity” (Molecular Biology International, 2011).

Assay [1] deals with T1, TbINO1 (Trypanosoma brucei brucei, UniProt Q5QQ46).
T1 sequence (Q5QQ46 1-528): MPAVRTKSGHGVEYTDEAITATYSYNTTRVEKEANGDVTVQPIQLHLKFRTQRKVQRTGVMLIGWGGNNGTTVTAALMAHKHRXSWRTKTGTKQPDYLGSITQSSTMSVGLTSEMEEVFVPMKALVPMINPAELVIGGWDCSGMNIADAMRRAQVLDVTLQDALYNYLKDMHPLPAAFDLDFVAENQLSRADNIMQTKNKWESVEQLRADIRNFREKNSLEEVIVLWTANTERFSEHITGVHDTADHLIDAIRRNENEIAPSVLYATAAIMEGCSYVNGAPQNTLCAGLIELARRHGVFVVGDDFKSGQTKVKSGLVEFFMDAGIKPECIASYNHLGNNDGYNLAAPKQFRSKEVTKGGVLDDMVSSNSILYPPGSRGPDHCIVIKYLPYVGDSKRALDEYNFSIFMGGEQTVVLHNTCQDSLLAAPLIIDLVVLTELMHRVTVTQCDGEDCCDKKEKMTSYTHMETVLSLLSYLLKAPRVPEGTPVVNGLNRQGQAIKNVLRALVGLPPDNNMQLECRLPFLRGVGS
The assay is described as follows: biochemical. Type of assay: binding.

Assay [2] concerns HeLa cells. The assay is described as follows: cells. The following applies: for viability at 500 µM / CC50: Homo sapiens, HeLa; for viability at 500 µM: 65 h; for HeLa Cells Alamar Blue: Supplementary Table 1, compound 0.5 mM, percentage of controls, mean ± SD (n=3) or SE (n=2); for CC50: read-out: HeLa ED50. Put shortly:
(§1)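 HeLa and A549 cells grown in DMEM with 10% FCS and 2 mM L-Glutamine were seeded at 2 × 10^4 cells/well. They were exposed to compounds for ~65 hours, then Alamar Blue was added for a further 5 hours to measure viability.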

Assay [3] has as its system A549 cells. The assay is described as follows: Cytotoxicity against A549 cells, Alamar Blue. Type of assay: cell-based. Conditions: Supplementary Table 1, compound 0.5 mM, percentage of controls (n=1); for viability at 500 µM: Homo sapiens, A549, 65 h. Put shortly:
as §1

The mark [4] stands for this setting: read-out: Tb Ino1 Tm Shift [˚C].
The mark [5] stands for this setting: read-out: HeLa Cells Alamar Blue.
Where [6] appears, read: read-out: HeLa Cells Alamar Blue (% survival).
[7] abbreviates: Supplementary Table 1, compound 1mM, mean ± SD from Boltzman curve fitting.

The structures appear in SMILES notation. Where two headings read alike, the source gives them in different places. Bounds are passed on as bounds.

Take `O=C(O)C(O)c1ccccc1` (centres unmarked) [compound 202, 2‐hydroxy‐2‐phenylacetic acid]: in assay [1] (setting [4]), the ΔTm at 1000 µM was 0 °C. In addition, the results for the viability at 500 µM in assay [2] (setting [5]) and in assay [3] were 96.7 ± 12.5% and 55.6%, respectively.
In the same order, the values of `OCc1cccc2c1OCO2` [compound 203, 1,3‐benzodioxol‐4‐ylmethanol] are 0.06 ± 0.08 °C, 94.6 ± 14.1% and 60.8%.
Take `CC(=O)c1c(O)cccc1O` [compound 204, 1-(2,6-dihydroxyphenyl)ethan-1-one]: in assay [1] (read-out: TbIno1 Tm shift [°C]), the ΔTm at 1000 µM was determined as 2.35 ± 0.06 °C. In addition, the viability at 500 µM worked out at 36.3 ± 12.5% in assay [2] (setting [5]), 36.3 ± 12.5% in assay [2] (setting [6]) and 34.4% in assay [3].
Consider `CC1(C(=O)O)CC2C=CC1C2` (centres unmarked) [compound 205, 2‐methylbicyclo[2.2.1]hept‐5‐ene‐2‐carboxylic acid], for which the “Tb Ino1 Tm Shift [˚C]” value in assay [1] (setting [7]) was found to be 0.08 ± 0.08 °C. In addition, in assay [2], the “HeLa Cells Alamar Blue” value is 92.1 ± 17.2 percentage of controls. Further, the “A549 Cells Alamar Blue” value in assay [3] was 53.8 percentage of controls.
As for `CC(=O)N1CCC(C#N)CC1` [compound 207, 1‐acetylpiperidine‐4‐carbonitrile], the ΔTm at 1000 µM in assay [1] (setting [4]) worked out at 0.03 ± 0.07 °C. In addition, the values for the viability at 500 µM in assay [2] (setting [5]) and in assay [3] were 90 ± 2.9% and 65.3%, respectively.
The matching figures for `N#Cc1c(N)cccc1Cl` [compound 210, 2‐amino‐6‐chlorobenzonitrile]: 0.15 ± 0.08 °C, 91.5 ± 10.8% and 89.2%.
In the same order, the values of `Clc1ccc(Cl)s1` [compound 211, 2,5‐dichlorothiophene] are 0.02 ± 0.08 °C, 99.6 ± 4.1% and 117%.
As to `COC(=O)c1cc(C)[nH]c1C` [compound 214, methyl 2,5‐dimethyl‐1H‐pyrrole‐3‐carboxylate], the “Tb Ino1 Tm Shift [˚C]” value in assay [1] (setting [7]) was 0.78 ± 0.06 °C. In assay [2], the “HeLa Cells Alamar Blue” value is reported as 74.8 ± 18 percentage of controls. Also, in assay [3], the “A549 Cells Alamar Blue” value is given as 64.4 percentage of controls.
On to `NC(=S)Nc1ccncc1` [compound 215, N‐(4‐pyridyl)thiourea], for which, in assay [1] (setting [4]), the ΔTm at 1000 µM was 0.03 ± 0.08 °C. Also, the viability at 500 µM in assay [2] (setting [5]) was 98.3 ± 16.5%; in assay [3], 59.6%.
With `Cn1nc(C(C)(C)C)cc1N` [compound 216, 3‐(tert‐butyl)‐1‐methyl‐1H‐pyrazol‐5‐amine], in assay [1] (setting [7]), the “Tb Ino1 Tm Shift [˚C]” value worked out at 0.15 ± 0.07 °C. Further, the “HeLa Cells Alamar Blue” value in assay [2] is recorded as 80.1 ± 11.3 percentage of controls. Further, the “A549 Cells Alamar Blue” value in assay [3] is reported as 56.7 percentage of controls.
In the case of `N#Cc1cc(Cl)ccc1O` [compound 218, 5‐chloro‐2‐hydroxybenzonitrile], the ΔTm at 1000 µM in assay [1] (setting [4]) is 0.43 ± 0.07 °C. Besides, the viability at 500 µM in assay [2] (setting [5]) was determined as 92 ± 11.8%; in assay [3], 67.7%.
For the compound `OCc1cn2ccsc2n1` [compound 221, imidazo[2,1‐b]thiazol‐6‐ylmethanol], the ΔTm at 1000 µM in assay [1] (setting [4]) amounted to 0.09 ± 0.23 °C. The viability at 500 µM in assay [2] (setting [5]) was 107 ± 7.6%; in assay [3], 99.5%.
As to `N#CCCNCC1CCCO1` (centres unmarked) [compound 224, 3‐[(tetrahydrofuran‐2‐ylmethyl)amino]propanenitrile], the “Tb Ino1 Tm Shift [˚C]” value in assay [1] (setting [7]) worked out at 0.21 ± 0.09 °C. In addition, in assay [2], the “HeLa Cells Alamar Blue” value is on record as 96.5 ± 13.7 percentage of controls. For the same compound, the “A549 Cells Alamar Blue” value in assay [3] is recorded as 60 percentage of controls.
Turning to `Clc1ccc2nonc2c1` [compound 225, 5‐chloro‐2,1,3‐benzoxadiazole], the ΔTm at 1000 µM in assay [1] (setting [4]) turned out to be 0.81 ± 0.19 °C. Also, the viability at 500 µM in assay [2] (setting [5]) was 91.4 ± 15.1%; in assay [3] it was 68.9%.
`CC(=O)c1sc(C)nc1C` [compound 226, 1‐(2,4‐dimethyl‐1,3‐thiazol‐5‐yl)ethan‐1‐one]: the “Tb Ino1 Tm Shift [˚C]” value in assay [1] (setting [7]) worked out at 0.37 ± 0.1 °C. For the same compound, in assay [2], the “HeLa Cells Alamar Blue” value is listed as 85.8 ± 10.4 percentage of controls. The “A549 Cells Alamar Blue” value in assay [3] was 62 percentage of controls.
In the same order, the values of `Cc1cc(C(N)=S)n(C)n1` [compound 227, 1,3‐dimethyl‐1H‐pyrazole‐5‐carbothioamide] are 0.57 ± 0.1 °C, 106.7 ± 5.8 percentage of controls and 50.9 percentage of controls.
As for `Cc1nc(C(C)(C)C)cs1` [compound 229, 4‐(tert‐butyl)‐2‐methyl‐1,3‐thiazole], the ΔTm at 1000 µM in assay [1] (setting [4]) worked out at 0.23 ± 0.07 °C. Further, the viability at 500 µM in assay [2] (setting [5]) came to 108 ± 11.8%; in assay [3] it was 65.6%.
In the same order, the values of `Cc1ccc(CN)cc1Cl` [compound 233, 3‐chloro‐4‐methylbenzylamine] are 0.11 ± 0.08 °C, 91.7 ± 12.6% and 163%.
Regarding `CC(=O)c1ccc(F)c(F)c1` [compound 234, 1‐(3,4‐difluorophenyl)ethan‐1‐one], the ΔTm at 1000 µM in assay [1] (setting [4]) was found to be 0.14 ± 0.08 °C. Besides, the viability at 500 µM in assay [2] (setting [5]) was determined as 90.3 ± 14%; in assay [3], 73.9%.
For the compound `c1cc(-c2ccncc2)ccn1` [compound 235, 4,4'‐dipyridyl], in assay [1] (Supplementary Table 1, compound 1mM, mean ± SD from Boltzman curve fitting, read-out: Tb Ino1 Tm Shift [˚C]), the ΔTm at 1000 µM worked out at 0.2 ± 0.07 °C. Besides, the viability at 500 µM in assay [2] (setting [5]) stood at 63.7 ± 17.4%; in assay [3] it was 54.8%.
For `O=C(O)CCc1cccs1` [compound 237, 3‐(2‐thienyl)propanoic acid], the ΔTm at 1000 µM in assay [1] (setting [4]) was 0.22 ± 0.07 °C. The results for the viability at 500 µM in assay [2] (setting [5]) and in assay [3] were 113 ± 7.8% and 70.9%, respectively.
The matching figures for `COC(=O)Cc1ccsc1` [compound 238, methyl 2‐(3‐thienyl)acetate]: 0.39 ± 0.07 °C, 111 ± 9.9% and 64.7%.
Turning to `Cc1csc(N)c1C(N)=O` [compound 239, 2-amino-4-methylthiophene-3-carboxamide], the ΔTm at 1000 µM in assay [1] (read-out: TbIno1 Tm shift [°C]) came out at 2.05 ± 0.05 °C. Moreover, the viability at 500 µM was found to be 95.8 ± 9.3% in assay [2] (setting [5]), 95.8 ± 9.3% in assay [2] (setting [6]) and 69.8% in assay [3]. Besides, the CC50 in assay [2] was above 20000 µM.
Take `COC(=O)c1sccc1N` [compound 241, methyl 3‐aminothiophene‐2‐carboxylate]: the ΔTm at 1000 µM in assay [1] (setting [4]) was found to be 0.38 ± 0.09 °C. The viability at 500 µM in assay [2] (setting [5]) is 94.5 ± 13%; in assay [3], 108%.
In the same order, the values of `COC(=O)c1ccsc1N` [compound 242, methyl 2‐aminothiophene‐3‐carboxylate] are 0.34 ± 0.08 °C, 37 ± 6.1% and 80.5%.
The matching figures for `COC(=O)c1cscc1N` [compound 244, methyl 4‐aminothiophene‐3‐carboxylate]: 0.61 ± 0.11 °C, 78.7 ± 17.9% and 90.3%.
Take `COC(=O)c1sccc1O` [compound 247, methyl 3‐hydroxythiophene‐2‐carboxylate]: in assay [1] (setting [7]), the “Tb Ino1 Tm Shift [˚C]” value turned out to be 0.2 ± 0.07 °C. Moreover, in assay [2], the “HeLa Cells Alamar Blue” value is 95.4 ± 6.1 percentage of controls. For the same compound, in assay [3], the “A549 Cells Alamar Blue” value was 108.7 percentage of controls.
`c1cncc(Cn2cccc2)c1` [compound 248, 3‐(1H‐pyrrol‐1‐ylmethyl)pyridine]: in assay [1] (setting [4]), the ΔTm at 1000 µM amounted to 0 °C. The results for the viability at 500 µM in assay [2] (setting [5]) and in assay [3] were 91.3 ± 11.9% and 86.6%, respectively.
In the case of `Nc1cccc(-n2cccc2)c1` [compound 251, 3‐(1H‐pyrrol‐1‐yl)aniline], the ΔTm at 1000 µM in assay [1] (setting [4]) worked out at 0.15 ± 0.05 °C. For the same compound, the viability at 500 µM in assay [2] (setting [5]) turned out to be 80.5 ± 3.4%; in assay [3], 79.8%.
Turning to `Cc1nc(C(N)=S)cs1` [compound 252, 2‐methyl‐1,3‐thiazole‐4‐carbothioamide], in assay [1] (setting [4]), the ΔTm at 1000 µM worked out at 0.7 ± 0.07 °C. The viability at 500 µM in assay [2] (setting [5]) is 90.3 ± 10.7%; in assay [3], 102%.
For the compound `OCc1ccc2ccccc2n1` [compound 256, 2-quinolinylmethanol], the ΔTm at 1000 µM in assay [1] (read-out: TbIno1 Tm shift [°C]) worked out at 2.2 ± 0.06 °C. Also, the values for the viability at 500 µM in assay [2] (setting [5]), in assay [2] (setting [6]) and in assay [3] were 99.2 ± 19.5%, 99.2 ± 19.5% and 119%, respectively. Further, the CC50 in assay [2] was 836 ± 68 µM.
Take `Nc1ccc(-c2ccco2)cc1` [compound 257, 4‐(2‐furyl)aniline]: the ΔTm at 1000 µM in assay [1] (setting [4]) stood at 0.83 ± 0.04 °C. Also, the viability at 500 µM was determined as 17 ± 12.7% in assay [2] (setting [5]) and 75.7% in assay [3]. In addition, in assay [2], the CC50 is 114 ± 8 µM.
As for `Cc1cc(O)nc2ccccc12` [compound 258, 4‐methyl‐2‐quinolinol], in assay [1] (setting [4]), the ΔTm at 1000 µM is 0.17 ± 0.06 °C. For the same compound, the viability at 500 µM in assay [2] (setting [5]) was 92.7 ± 13.6%; in assay [3], 90.7%.
`Cc1cc2c(N)cccc2nn1` [compound 261, 3-methylcinnolin-5-amine]: in assay [1] (read-out: TbIno1 Tm shift [°C]), the ΔTm at 1000 µM came to 1.83 ± 0.11 °C. Besides, the figures for the viability at 500 µM in assay [2] (setting [5]), in assay [2] (setting [6]) and in assay [3] were 62.5 ± 14.7%, 62.5 ± 14.7% and 74.1%, respectively. Also, the CC50 in assay [2] was found to be 726 ± 64 µM.
